Values after ≈ are worked out from the molar mass of the structure shown.
Tests used:
[1] = Toxicity in RBC assessed as concentration required for 30% hemolysis; format: cell-based; conditions: erythrocyte
[2] = Inhibition of Escherichia coli FabH expressed in Escherichia coli BL21(DE3) using holo-ACP as substrate after 25 mins
Staphylococcus aureus = assay: Antibacterial activity against Staphylococcus aureus ATCC 6538 after 24 hrs by MTT assay; format: functional; conditions: ATCC 6538, 24 h
Bacillus subtilis = assay: Antibacterial activity against Bacillus subtilis ATCC 530 after 24 hrs by MTT assay; format: functional; conditions: ATCC 530, 24 h
Escherichia coli = assay: Antibacterial activity against Escherichia coli ATCC 25922 after 24 hrs by MTT assay; format: functional; conditions: ATCC 25922, 24 h
Pseudomonas aeruginosa = assay: Antibacterial activity against Pseudomonas aeruginosa ATCC 27853 after 24 hrs by MTT assay; format: functional; conditions: ATCC 27853, 24 h

Row | IC50 [2] [µM] | MIC (Staphylococcus aureus) [µg/mL] | MIC (Bacillus subtilis) [µg/mL] | MIC (Escherichia coli) [µg/mL] | MIC (Pseudomonas aeruginosa) [µg/mL] | SMILES | HC30 [1] [mg/mL]
1 | 23.3 | 12.5 (≈ 26.8 µM) | 6.25 (≈ 13.4 µM) | 6.25 (≈ 13.4 µM) | 12.5 (≈ 26.8 µM) | Brc1ccc(C2=NN(c3nc(-c4ccccc4)cs3)C(c3cccs3)C2)cc1 (stereo not given) | > 10
2 | 8.4 | 3.13 (≈ 9.5 µM) | 3.13 (≈ 9.5 µM) | 3.13 (≈ 9.5 µM) | 6.25 (≈ 19 µM) | O=C1CSC(N2N=C(c3ccc(F)cc3)CC2c2ccco2)=N1 (stereo not given) | > 10
3 |  | 12.5 (≈ 25.2 µM) | 12.5 (≈ 25.2 µM) | 6.25 (≈ 12.6 µM) | 12.5 (≈ 25.2 µM) | COc1ccc(-c2csc(N3N=C(c4ccc(Br)cc4)CC3c3cccs3)n2)cc1 (stereo not given) | 
4 | 89.9 | 12.5 (≈ 35 µM) | 50 (≈ 140 µM) | 12.5 (≈ 35 µM) | > 50 | COc1ccc(C2=NN(C3=NC(=O)CS3)C(c3cccs3)C2)cc1 (stereo not given) | > 10
5 | 13.6 | 3.13 (≈ 9.17 µM) | 6.25 (≈ 18.3 µM) | 6.25 (≈ 18.3 µM) | 6.25 (≈ 18.3 µM) | Cc1ccc(C2=NN(C3=NC(=O)CS3)C(c3cccs3)C2)cc1 (stereo not given) | > 10
6 |  | 6.25 (≈ 18.6 µM) | 12.5 (≈ 37.3 µM) | 12.5 (≈ 37.3 µM) | 12.5 (≈ 37.3 µM) | Cc1ccc(C2=NN(C3=NC(=O)CS3)C(c3ccccc3)C2)cc1 (stereo not given) | 
7 | 18.4 | 6.25 (≈ 19.2 µM) | 3.13 (≈ 9.62 µM) | 3.13 (≈ 9.62 µM) | 6.25 (≈ 19.2 µM) | Cc1ccc(C2=NN(C3=NC(=O)CS3)C(c3ccco3)C2)cc1 (stereo not given) | > 10
8 |  | 6.25 (≈ 16 µM) | 12.5 (≈ 32 µM) | 6.25 (≈ 16 µM) | 12.5 (≈ 32 µM) | O=C1CSC(N2N=C(c3ccc(Br)cc3)CC2c2ccco2)=N1 (stereo not given) | 
9 | 27.1 | 12.5 (≈ 30.8 µM) | 12.5 (≈ 30.8 µM) | 6.25 (≈ 15.4 µM) | 6.25 (≈ 15.4 µM) | O=C1CSC(N2N=C(c3ccc(Br)cc3)CC2c2cccs2)=N1 (stereo not given) | > 10
10 | 9.7 | 1.56 (≈ 3.46 µM) | 3.13 (≈ 6.95 µM) | 3.13 (≈ 6.95 µM) | 3.13 (≈ 6.95 µM) | Brc1ccc(C2=NN(c3nc(-c4ccccc4)cs3)C(c3ccco3)C2)cc1 (stereo not given) | > 10
11 |  | 12.5 (≈ 30.8 µM) | 50 (≈ 123 µM) | 12.5 (≈ 30.8 µM) | 12.5 (≈ 30.8 µM) | Fc1ccc(C2=NN(c3nc(-c4ccccc4)cs3)C(c3cccs3)C2)cc1 (stereo not given) | 
12 |  | 12.5 (≈ 28.4 µM) | 12.5 (≈ 28.4 µM) | 12.5 (≈ 28.4 µM) | > 50 | Clc1ccc(C2=NN(c3nc(-c4ccccc4)cs3)C(c3ccco3)C2)cc1Cl (stereo not given) | 
13 |  | 12.5 (≈ 31.6 µM) | 12.5 (≈ 31.6 µM) | 6.25 (≈ 15.8 µM) | 12.5 (≈ 31.6 µM) | Cc1ccc(C2=NN(c3nc(-c4ccccc4)cs3)C(c3ccccc3)C2)cc1 (stereo not given) | 
14 | 22.3 | 6.25 (≈ 16 µM) | 50 (≈ 128 µM) | 6.25 (≈ 16 µM) | 12.5 (≈ 32.1 µM) | Fc1ccc(C2=NN(c3nc(-c4ccccc4)cs3)C(c3ccco3)C2)cc1 (stereo not given) | > 10
15 |  | 12.5 (≈ 29 µM) | 6.25 (≈ 14.5 µM) | 6.25 (≈ 14.5 µM) | 12.5 (≈ 29 µM) | COc1ccc(-c2csc(N3N=C(c4ccc(C)cc4)CC3c3cccs3)n2)cc1 (stereo not given) | 
16 |  | 12.5 (≈ 36.2 µM) | 12.5 (≈ 36.2 µM) | 6.25 (≈ 18.1 µM) | > 50 | O=C1CSC(N2N=C(c3ccc(F)cc3)CC2c2cccs2)=N1 (stereo not given) | 
17 |  | 12.5 (≈ 26.6 µM) | > 50 | 50 (≈ 106 µM) | > 50 | COc1ccc(-c2csc(N3N=C(c4ccc(Cl)c(Cl)c4)CC3c3ccco3)n2)cc1 (stereo not given) | 
18 |  | 12.5 (≈ 29.8 µM) | 12.5 (≈ 29.8 µM) | 6.25 (≈ 14.9 µM) | 6.25 (≈ 14.9 µM) | COc1ccc(-c2csc(N3N=C(c4ccc(F)cc4)CC3c3ccco3)n2)cc1 (stereo not given) | 
19 | 10.9 | 1.56 (≈ 3.88 µM) | 3.13 (≈ 7.79 µM) | 3.13 (≈ 7.79 µM) | 1.56 (≈ 3.88 µM) | Cc1ccc(C2=NN(c3nc(-c4ccccc4)cs3)C(c3cccs3)C2)cc1 (stereo not given) | > 10
20 |  | 12.5 (≈ 28.7 µM) | 12.5 (≈ 28.7 µM) | 12.5 (≈ 28.7 µM) | 12.5 (≈ 28.7 µM) | COc1ccc(-c2csc(N3N=C(c4ccc(F)cc4)CC3c3cccs3)n2)cc1 (stereo not given) | 
21 | 30.6 | 6.25 (≈ 15 µM) | 12.5 (≈ 29.9 µM) | 6.25 (≈ 15 µM) | 50 (≈ 120 µM) | COc1ccc(C2=NN(c3nc(-c4ccccc4)cs3)C(c3cccs3)C2)cc1 (stereo not given) | > 10
22 | 15.7 | 6.25 (≈ 15 µM) | 6.25 (≈ 15 µM) | 3.13 (≈ 7.53 µM) | 3.13 (≈ 7.53 µM) | COc1ccc(-c2csc(N3N=C(c4ccc(C)cc4)CC3c3ccco3)n2)cc1 (stereo not given) | > 10
23 |  | 12.5 (≈ 27.9 µM) | 50 (≈ 112 µM) | 12.5 (≈ 27.9 µM) | 12.5 (≈ 27.9 µM) | COc1ccc(C2=NN(c3nc(-c4ccc(OC)cc4)cs3)C(c3cccs3)C2)cc1 (stereo not given) | 
24 | 4.6 | 1.56 (≈ 4.05 µM) | 3.13 (≈ 8.12 µM) | 1.56 (≈ 4.05 µM) | 1.56 (≈ 4.05 µM) | Cc1ccc(C2=NN(c3nc(-c4ccccc4)cs3)C(c3ccco3)C2)cc1 (stereo not given) | > 10
25 |  | 3.13 (≈ 6.47 µM) | 3.13 (≈ 6.47 µM) | 1.56 (≈ 3.23 µM) | 1.56 (≈ 3.23 µM) | NC[C@H]1O[C@H](O[C@H]2[C@H](O)[C@@H](O[C@H]3O[C@H](CO)[C@@H](O)[C@H](N)[C@H]3O)[C@H](N)C[C@@H]2N)[C@H](N)[C@@H](O)[C@@H]1O [BEKANAMYCIN] | 
26 |  | 12.5 (≈ 31.5 µM) | > 50 | 12.5 (≈ 31.5 µM) | 12.5 (≈ 31.5 µM) | O=C1CSC(N2N=C(c3ccc(Cl)c(Cl)c3)CC2c2cccs2)=N1 (stereo not given) | 
27 | 19.7 | 12.5 (≈ 26 µM) | 6.25 (≈ 13 µM) | 6.25 (≈ 13 µM) | 6.25 (≈ 13 µM) | COc1ccc(-c2csc(N3N=C(c4ccc(Br)cc4)CC3c3ccco3)n2)cc1 (stereo not given) | > 10
28 | > 150 | > 50 | 12.5 (≈ 27.4 µM) | 50 (≈ 110 µM) | 12.5 (≈ 27.4 µM) | Clc1ccc(C2=NN(c3nc(-c4ccccc4)cs3)C(c3cccs3)C2)cc1Cl (stereo not given) | > 10
29 |  | 6.25 (≈ 16.4 µM) | 12.5 (≈ 32.9 µM) | 12.5 (≈ 32.9 µM) | 12.5 (≈ 32.9 µM) | O=C1CSC(N2N=C(c3ccc(Cl)c(Cl)c3)CC2c2ccco2)=N1 (stereo not given) | 
30 | > 150 | 50 (≈ 103 µM) | 12.5 (≈ 25.7 µM) | 50 (≈ 103 µM) | 12.5 (≈ 25.7 µM) | COc1ccc(-c2csc(N3N=C(c4ccc(Cl)c(Cl)c4)CC3c3cccs3)n2)cc1 (stereo not given) | > 10
